Measured values from ChEMBL document CHEMBL1201862, “PubChem BioAssay data set” (2004).
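Exposure lasted 48 hours, with cells grown in 96-well plates and compounds tested at five concentrations. GI50: concentration for 50% inhibition of growth.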 The source made the active and inactive calls. Cut-off read from the data, not from the text of the source: active = GI50 up to about 1.1 µM and inactive = higher.

How the values were obtained:
Assay in all cases: DTP human tumour cell line panel, 48 h
A498 = tested on: A498
ACHN = tested on: ACHN
EKVX = tested on: EKVX
HOP-92 = tested on: HOP-92
IGROV-1 = tested on: IGROV-1
K562 = tested on: K562
LOX IMVI = tested on: LOX IMVI
NCI-H460 = tested on: NCI-H460
OVCAR-4 = tested on: OVCAR-4
RPMI-8226 = tested on: RPMI-8226
RXF 393 = tested on: RXF 393
SF-268 = tested on: SF-268
SF-539 = tested on: SF-539
SW-620 = tested on: SW-620
UACC-62 = tested on: UACC-62
UO-31 = tested on: UO-31
SR = tested on: SR

Row | SMILES | GI50 (A498) | GI50 (ACHN) | GI50 (EKVX) | GI50 (HOP-92) | GI50 (IGROV-1) | GI50 (K562) | GI50 (LOX IMVI) | GI50 (NCI-H460) | GI50 (OVCAR-4) | GI50 (RPMI-8226) | GI50 (RXF 393) | GI50 (SF-268) | GI50 (SF-539) | GI50 (SW-620) | GI50 (UACC-62) | GI50 (UO-31) | GI50 (SR)
1 | COc1cc(/C=N/N=C(\N)NO)ccc1O | 44.9 µM (inactive) | 44.1 µM (inactive) | 71.9 µM (inactive) | > 100 µM (inactive) | > 100 µM (inactive) | 33.3 µM (inactive) | 30.5 µM (inactive) | 38.8 µM (inactive) | > 100 µM (inactive) | > 100 µM (inactive) | 31.5 µM (inactive) | 56 µM (inactive) | 46.3 µM (inactive) | 68.2 µM (inactive) | 30.4 µM (inactive) | 41.4 µM (inactive) | –
2 | C=CCCCN1CCCCC1=S | – | > 100 µM (inactive) | > 100 µM (inactive) | > 100 µM (inactive) | > 100 µM (inactive) | > 100 µM (inactive) | > 100 µM (inactive) | > 100 µM (inactive) | > 100 µM (inactive) | > 100 µM (inactive) | > 100 µM (inactive) | – | > 100 µM (inactive) | > 100 µM (inactive) | > 100 µM (inactive) | > 100 µM (inactive) | > 100 µM (inactive)
3 | O=C(O)C(CO)NC(=O)n1c2ccccc2c2ccccc21 (centres undefined) | – | > 100 µM (inactive) | > 100 µM (inactive) | > 100 µM (inactive) | > 100 µM (inactive) | > 100 µM (inactive) | > 100 µM (inactive) | > 100 µM (inactive) | – | > 100 µM (inactive) | > 100 µM (inactive) | > 100 µM (inactive) | > 100 µM (inactive) | > 100 µM (inactive) | > 100 µM (inactive) | – | > 100 µM (inactive)
4 | Cn1cnc([N+](=O)[O-])c1Sc1nnc(C(F)(F)F)n1C | > 100 µM (inactive) | 23.6 µM (inactive) | > 100 µM (inactive) | 16 µM (inactive) | 40 µM (inactive) | 23.4 µM (inactive) | 15.3 µM (inactive) | > 100 µM (inactive) | 24.3 µM (inactive) | 19.7 µM (inactive) | – | 83.6 µM (inactive) | 20.5 µM (inactive) | 18.6 µM (inactive) | 18 µM (inactive) | 26.5 µM (inactive) | 17.6 µM (inactive)
5 | COC(=O)C(Cl)=C1CC1 | > 100 µM (inactive) | 21.5 µM (inactive) | > 10 µM (inactive) | 13.3 µM (inactive) | > 100 µM (inactive) | 22.3 µM (inactive) | 16.7 µM (inactive) | > 100 µM (inactive) | 34.8 µM (inactive) | 21.8 µM (inactive) | 19.1 µM (inactive) | 92.5 µM (inactive) | 27.2 µM (inactive) | 18.3 µM (inactive) | 59 µM (inactive) | 31.4 µM (inactive) | –
6 | N#CC1CCCCCCCCCCC(=O)N(CCCl)C1=O (centres undefined) | > 100 µM (inactive) | > 100 µM (inactive) | > 100 µM (inactive) | > 100 µM (inactive) | > 100 µM (inactive) | > 100 µM (inactive) | > 100 µM (inactive) | > 100 µM (inactive) | > 100 µM (inactive) | > 100 µM (inactive) | > 100 µM (inactive) | > 100 µM (inactive) | > 100 µM (inactive) | > 100 µM (inactive) | > 100 µM (inactive) | > 100 µM (inactive) | –
7 | O=C(O)C1=Cc2cccc3cccc(c23)C1=O | 24.3 µM (inactive) | > 100 µM (inactive) | > 100 µM (inactive) | – | > 100 µM (inactive) | > 100 µM (inactive) | > 100 µM (inactive) | > 100 µM (inactive) | > 100 µM (inactive) | > 100 µM (inactive) | > 100 µM (inactive) | > 100 µM (inactive) | – | > 100 µM (inactive) | > 100 µM (inactive) | 81.8 µM (inactive) | > 100 µM (inactive)
8 | CCOC(C)C(/C=N/NC(N)=S)=NNC(N)=S (centres undefined) [GLOXAZONE] | 21.9 µM (inactive) | > 100 µM (inactive) | 0.248 µM (active) | 46.1 µM (inactive) | – | < 0.0195 µM (active) | > 100 µM (inactive) | > 100 µM (inactive) | > 100 µM (inactive) | 0.0643 µM (active) | – | > 100 µM (inactive) | > 100 µM (inactive) | > 100 µM (inactive) | > 100 µM (inactive) | – | < 0.0251 µM (active)
9 | CCCCCCCCCCCCCCCCOCC(CP(=O)([O-])OCC[n+]1ccccc1)OC (centres undefined) | 11.3 µM (inactive) | – | 16.5 µM (inactive) | 2.28 µM (inactive) | 3.84 µM (inactive) | 17.1 µM (inactive) | – | – | 11.4 µM (inactive) | 2.96 µM (inactive) | – | 7.1 µM (inactive) | 14.6 µM (inactive) | 14.9 µM (inactive) | 11.3 µM (inactive) | 9.4 µM (inactive) | 3.5 µM (inactive)
10 | O=C1Nc2c(ccc(Cl)c2I)C1=O | – | 15.6 µM (inactive) | 16.4 µM (inactive) | – | 16.6 µM (inactive) | 23.8 µM (inactive) | 19.1 µM (inactive) | 17.9 µM (inactive) | 16.9 µM (inactive) | 15.5 µM (inactive) | 17.4 µM (inactive) | 20 µM (inactive) | – | 18.7 µM (inactive) | 17.6 µM (inactive) | 18.2 µM (inactive) | 18.8 µM (inactive)
